We go through six compounds from article PMC7604311, “Caprine Bactenecins as Promising Tools for Developing New Antimicrobial and Antitumor Drugs” (Frontiers in Cellular and Infection Microbiology, 2020).

A short description of one series: MTT test. The format is cell-based. The conditions noted are these: human, serum-free RPMI-1640, overnight incubation, mean ± SD of three independent tests, read-out: IC50 of cytotoxic action toward human PBMC. How it is done: Cytotoxic activity of peptides toward various types of eukaryotic cells was assessed using the standard MTT [3-(4,5-Dimethylthiazol-2-yl)-2,5-diphenyltetrazolium bromide] test ([Mosmann, 1983]). Human peripheral blood mononuclear cells (PBMC) were isolated from the peripheral blood of healthy donors. Whole heparinized blood diluted 3-fold with sterile PBS was carefully layered upon the 5 ml of the sterile Ficoll-400 (Pharmacia, Sweden) with a density of 1.077 in a sterile 50 ml conical tube and then centrifuged at 600 g and 4°C for 40 min. The mononuclear “ring” remaining above the Ficoll was collected using a transfer pipette and placed in another tube. Cells were washed twice with sterile PBS, resuspended in RPMI-1640 culture medium and immediately used for the test. Tumor cell lines were purchased from Biolot (Saint Petersburg, Russia) and cultured at 37°C and 5% CO2 in RPMI-1640 medium (Biolot, Saint Petersburg, Russia) supplemented with 10% fetal bovine serum, glutamine, and penicillin-streptomycin combination. For the experiments, cells were washed from the medium they were growing in and resuspended in serum- and antibiotic-free RPMI-1640. Cells were added at not less than 2 × 10^4 per well in sterile flat bottom 96-well microplates containing serial dilutions of tested peptides in RPMI-1640. For the positive control (100% viable cells), RPMI-1640 medium was used instead of the peptide solution, whereas for the negative control (0% viable cells) medium replaced both peptide and cells. Test plates were incubated at 37°C and 5% CO2 overnight, after which MTT metabolic marker in PBS (5 mg/ml) was introduced into each well. After an additional 4 h incubation, the reaction was stopped by adding isopropanol supplemented with 0.04 M HCl, in which the formazan crystals (formed as a result of MTT reduction in presence of metabolically active cells) were dissolved, and OD at 540 nm was measured. Background absorbance at 690 nm was subtracted from the results to countervail any unspecific OD fluctuations. The % of surviving cells was found as:
(2) Survival(%)=(ODsample−OD0% viable)/(OD100% viable−OD0% viable)×100%,
where ODsample, OD0% viable, and OD100% viable are respectively values of the OD at 540 nm minus the OD at 690 nm for the test sample and negative or positive controls. IC50 toxicity values were determined by nonlinear regression analysis of the dose response curves using Sigma Plot 11 (Systat Software Inc., USA). The experiments were repeated three times, with 3 parallels of samples and 4–6 parallels of controls each time.
Background: Tetrazolium assays rely on reduction of a dye to a coloured formazan, in cell work by metabolically active cells.

The next series concerns E. coli ML-35p. Description: Broth microdilution assay (MIC). It counts as cell-based, Escherichia coli. To be noted: 50% MH broth/50% 10 mM Na-P buffer pH 7.4 with 0.1% BSA, 1×10^6 CFU/ml, 20 h, median of 3–6 independent experiments in triplicate. The procedure:
The minimal inhibitory concentrations (MIC) of peptides were determined using microdilution assay in Müller–Hinton (MH) broth in general accordance with the guidelines of the European Committee for Antimicrobial Susceptibility Testing. Test plates were additionally pretreated with 0.1% bovine serum albumin (BSA) in distilled H2O (incubated for 1 h at 37°C) to reduce possible non-specific binding of peptides to the plastic surface of the wells, as proposed for AMP activity measuring ([Tossi et al., 1997]; [Wiegand et al., 2008]). Two-fold serial dilutions of peptides starting with 2 × stock concentration were prepared in sterile 10 mM sodium phosphate (Na-P) buffer, pH 7.4, with 0.1% BSA. Thus, final solutions contained 50% of Na-P diluted peptide and 50% of MH broth with bacteria. Bacteria for testing were grown overnight, then transferred into a fresh portion of 2.1% MH medium and additionally incubated for 2–3 h to obtain bacterial culture in its mid-logarithmic growth phase, which was diluted down to the final concentration of 1 × 10^6 CFU/ml. Concentration of bacteria in growth medium was calculated based on its absorbance at 620 nm.
After 20 h of incubation of AMPs with bacteria MICs were determined as lowest concentrations of AMPs completely preventing the visible growth of bacteria. Tests were performed in 60-well Terasaki microplates (10 µl end volume, V-shaped bottom; Sarstedt, Germany); dilutions in each test were made in triplicate. Final MIC values were calculated as medians based on the results of 3–5 independent experiments.

The subject of the next series is U937. Description: MTT test. The format is cell-based, human. The conditions noted are these: serum-free RPMI-1640, overnight incubation, mean ± SD of three independent tests, read-out: IC50 of cytotoxic action toward U937. How it is done:
Cytotoxic activity of peptides toward various types of eukaryotic cells was assessed using the standard MTT [3-(4,5-Dimethylthiazol-2-yl)-2,5-diphenyltetrazolium bromide] test ([Mosmann, 1983]). Human peripheral blood mononuclear cells (PBMC) were isolated from the peripheral blood of healthy donors. Whole heparinized blood diluted 3-fold with sterile PBS was carefully layered upon the 5 ml of the sterile Ficoll-400 (Pharmacia, Sweden) with a density of 1.077 in a sterile 50 ml conical tube and then centrifuged at 600 g and 4°C for 40 min. The mononuclear “ring” remaining above the Ficoll was collected using a transfer pipette and placed in another tube. Cells were washed twice with sterile PBS, resuspended in RPMI-1640 culture medium and immediately used for the test. Tumor cell lines were purchased from Biolot (Saint Petersburg, Russia) and cultured at 37°C and 5% CO2 in RPMI-1640 medium (Biolot, Saint Petersburg, Russia) supplemented with 10% fetal bovine serum, glutamine, and penicillin-streptomycin combination. For the experiments, cells were washed from the medium they were growing in and resuspended in serum- and antibiotic-free RPMI-1640. Cells were added at not less than 2 × 10^4 per well in sterile flat bottom 96-well microplates containing serial dilutions of tested peptides in RPMI-1640. […] After an additional 4 h incubation, the reaction was stopped by adding isopropanol supplemented with 0.04 M HCl, in which the formazan crystals (formed as a result of MTT reduction in presence of metabolically active cells) were dissolved, and OD at 540 nm was measured. Background absorbance at 690 nm was subtracted from the results to countervail any unspecific OD fluctuations. […]
where ODsample, OD0% viable, and OD100% viable are respectively values of the OD at 540 nm minus the OD at 690 nm for the test sample and negative or positive controls. IC50 toxicity values were determined by nonlinear regression analysis of the dose response curves using Sigma Plot 11 (Systat Software Inc., USA). […]

For series [1], the system named is K. pneumoniae ESBL 344/17. Also on record: key to Susceptibility category: R – resistant; I – intermediate; S – susceptible. The conditions noted are these: initial susceptibility testing of the clinical isolate; ref supplying institutions; cited from earlier work.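 Also: each antibiotic is scored as S (susceptible), I (intermediate) or R (resistant), with its MIC listed alongside, in a susceptibility profile of the clinical isolate.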
Another series deals with P. aeruginosa MDR 522/17. Also on record: key to Susceptibility category: R – resistant; I – intermediate; S – susceptible. The conditions noted are these: initial susceptibility testing of the clinical isolate; ref supplying institutions; cited from earlier work.
Another series deals with S. aureus 1399/17. Also on record: key to Susceptibility category: R – resistant; I – intermediate; S – susceptible. The conditions noted are these: initial susceptibility testing of the clinical isolate; ref supplying institutions; cited from earlier work.
The next series deals with E. coli ESBL 521/17. Also on record: key to Susceptibility category: R – resistant; I – intermediate; S – susceptible. To be noted: initial susceptibility testing of the clinical isolate; ref supplying institutions; cited from earlier work.
A further series concerns A. baumannii 7226/16. Also on record: key to Susceptibility category: R – resistant; I – intermediate; S – susceptible. The conditions noted are these: initial susceptibility testing of the clinical isolate; ref supplying institutions; cited from earlier work. The text has this: page 1: Supplementary Material Supplementary Table 1. Susceptibility profiles of tested clinical isolates of bacteria. Gram-negative: Gram-positive: antibiotic E. coli A. baumannii P. aeruginosa K. pneumoniae antibiotic S. aureus ESBL 521/17 7226/16 MDR 522/17 ESBL 344/17 1399/17 AMP* R [≥32] R [≥32 ] R [≥32 ] R [≥32] AMP* R [≥32 ] AMC R [16] - - S [≤2] AMC - CTX R [≥64] - - S [≤1] AMX - CAZ R [≥64] - R [≥64] S [≤1] AZM R [≥4] FEP R [≥64] - R [≥64] S [≤1] VAN S [≤2] ATM R [≥64] - - S [≤1] DOX I [2] IPM S [≤1] R [≥16] I [8] S [≤1] CLI I [2] MEM S [≤0.25 ] R [≥32 ] R [≥16] S [≤0.25] MEM I [4] AM ...

Ends that are not written are not given here.

One may read the IC50 as the concentration that gives 50% inhibition. As a reminder, the MIC is the lowest concentration found to suppress growth.

Turning to “RFRLPFRRIHPPPFVRIHPPPFYRRFL-NH2 [ChBac3.4-1-NH2]”, the half-inhibitory concentration (IC50) in the series “MTT test” came to 12.1 ± 0.8 µM. This compound also gave an MIC with E. coli ML-35p of 4 µM.

For “RFRLPFRRPPIRIHPPPFYPPFRRFL [ChBac3.4-COOH]”, the IC50 in the series “MTT test” amounted to 36.2 ± 6.9 µM. Further, the minimum inhibitory concentration (MIC) against E. coli ML-35p turned out to be 2 µM.

On to “RFRLPFRRPPIRIHPPPFY-NH2 [ChBac3.4(1-19)-NH2]”, for which the 50% inhibitory concentration (IC50) in the series “MTT test” and in the series with U937 was above 64 µM in each case. Also, the minimum inhibitory concentration (MIC) in the series with E. coli ML-35p worked out at 4 µM.

In the case of “RFRLPFRRPWPIRIHPPPFYPWPFRRFL [ChBac3.4-2-COOH]”, the half-maximal inhibitory concentration (IC50) in the series “MTT test” was found to be 20.2 ± 4.5 µM. The compound also returned an MIC in the series on E. coli ML-35p of 4 µM.

Take `CC1(C)S[C@@H]2[C@H](NC(=O)[C@H](N)c3ccccc3)C(=O)N2[C@H]1C(=O)O` [AMP*, ampicillin]: the MIC of antibiotic (in series [1]; with P. aeruginosa MDR 522/17; in the series on S. aureus 1399/17; in the series with E. coli ESBL 521/17; with A. baumannii 7226/16) was at least 32 µg/mL throughout. Further, the Susceptibility category entry (in series [1]; with P. aeruginosa MDR 522/17; in the series with S. aureus 1399/17; in the series with E. coli ESBL 521/17; in the series with A. baumannii 7226/16) was “R” in each case.

With `CC[C@H]1OC(=O)[C@H](C)[C@@H](O[C@H]2C[C@@](C)(OC)[C@@H](O)[C@H](C)O2)[C@H](C)[C@@H](O[C@@H]2O[C@H](C)C[C@H](N(C)C)[C@H]2O)[C@](C)(O)C[C@@H](C)C(=O)[C@H](C)[C@@H](O)[C@]1(C)O` [ERY, erythromycin], the MIC of antibiotic (in series [1]; with P. aeruginosa MDR 522/17; in the series on S. aureus 1399/17; with E. coli ESBL 521/17; in the series with A. baumannii 7226/16) was at least 32 µg/mL each time. Also, the Susceptibility category entry (in series [1]; with P. aeruginosa MDR 522/17; in the series with S. aureus 1399/17; in the series with E. coli ESBL 521/17; in the series with A. baumannii 7226/16) was “R” in each case.
